We go through 11 molecules from PubChem BioAssay (NCI).

Some test systems named below: COLO 205 colon; SK-MEL-28 melanoma; NCI-H522 lung; SNB-19 CNS; NCI-H23 lung; HCT-15 colon; U251 CNS; A498 renal; HL-60(TB) leukemia; ACHN renal; HT29 colon; SN12C renal; OVCAR-3 ovarian; BT-549 breast; A549 NSCLC; MCF7 breast; EKVX NSCLC; TK-10 renal; LOX IMVI melanoma; T-47D breast.
Common to all, as to test: inhibition of tumour cell growth, NCI panel, 48 h

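Compound exposure: 48 hours, 5 concentrations, 96-well plates. TGI denotes the concentration required for complete inhibition of growth.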 Bounds are passed on as bounds.

Consider `Cc1cc(C)nc(SC(C)C(=O)N/N=C/c2ccc(OCc3ccccc3)cc2)n1` (centres undefined), for which the TGI in the test with COLO 205 colon is 91.6 µM; in the test on SK-MEL-28 melanoma, over 100 µM; in the test with NCI-H522 lung it was over 100 µM; in the test with SNB-19 CNS, over 100 µM; in the test on NCI-H23 lung it was over 100 µM; in the test on HCT-15 colon it was over 100 µM. Moreover, the TGI in the test with U251 CNS was over 100 µM; in the test with A498 renal it was over 100 µM; with HL-60(TB) leukemia, 38.3 µM; in the test with ACHN renal it was over 100 µM; in the test with HT29 colon it was over 100 µM; in the test on SN12C renal it was over 100 µM. For the same molecule, the TGI with OVCAR-3 ovarian was over 100 µM; in the test on BT-549 breast it was over 100 µM; with A549 NSCLC it was over 100 µM; in the test with MCF7 breast, 90.5 µM; in the test with EKVX NSCLC, over 100 µM; in the test on TK-10 renal it was over 100 µM. Moreover, the TGI in the test with LOX IMVI melanoma was over 100 µM; in the test with T-47D breast, 63.8 µM.
On to `CC1OC(O[C@H]2C3C=CO[C@@H](OC4OC(CO)C(O)C(O)C4O)C3[C@@]3(COC(=O)/C=C/c4ccc(O)cc4)O[C@@H]23)C(O)C(O)C1O` (some centres undefined), for which the TGI in the test on COLO 205 colon, in the test with SK-MEL-28 melanoma, in the test with NCI-H522 lung, in the test on SNB-19 CNS, in the test on NCI-H23 lung and with HCT-15 colon was over 100 µM throughout. Besides, the TGI with U251 CNS, with A498 renal, in the test on HL-60(TB) leukemia, in the test on ACHN renal, in the test with HT29 colon and in the test on SN12C renal was over 100 µM throughout. Moreover, the TGI in the test on OVCAR-3 ovarian, in the test on BT-549 breast, with A549 NSCLC, in the test with MCF7 breast, with EKVX NSCLC and with TK-10 renal was over 100 µM in each case. The TGI with LOX IMVI melanoma and in the test with T-47D breast was over 100 µM in each case.
For the molecule `Cc1cc(Cc2c(F)c(F)c(C(c3cc(C)no3)c3c(F)c(F)c(F)c(F)c3F)c(F)c2F)on1` (centres undefined), the TGI in the test with COLO 205 colon, with SK-MEL-28 melanoma, with NCI-H522 lung, with SNB-19 CNS, in the test with NCI-H23 lung and in the test with HCT-15 colon was over 100 µM in each case. In addition, the TGI in the test with U251 CNS is over 100 µM; in the test with A498 renal it was over 100 µM; with HL-60(TB) leukemia, over 39.6 µM; in the test on ACHN renal, over 100 µM; in the test on HT29 colon, over 100 µM; in the test on SN12C renal, over 100 µM. Moreover, the TGI in the test with OVCAR-3 ovarian, with BT-549 breast, in the test on A549 NSCLC, with MCF7 breast, in the test with EKVX NSCLC and with TK-10 renal was over 100 µM in each case. Also, the TGI in the test on LOX IMVI melanoma and in the test on T-47D breast was over 100 µM in each case.
With `CCOC(=O)c1c(N2CCCC2)[nH]c(=O)c(C(c2ccco2)c2c(O)c(C(=O)OCC)c(N3CCCC3)[nH]c2=O)c1O`, the TGI with COLO 205 colon, with SK-MEL-28 melanoma, with NCI-H522 lung, in the test on SNB-19 CNS, in the test with NCI-H23 lung and in the test on HCT-15 colon was over 100 µM in each case. Besides, the TGI in the test on U251 CNS, in the test with A498 renal, with HL-60(TB) leukemia, in the test with ACHN renal, in the test with HT29 colon and with SN12C renal was over 100 µM each time. Besides, the TGI with OVCAR-3 ovarian, in the test on BT-549 breast, in the test on A549 NSCLC, in the test with MCF7 breast, in the test with EKVX NSCLC and in the test on TK-10 renal was over 100 µM in each case. For the same molecule, the TGI in the test on LOX IMVI melanoma and in the test with T-47D breast was over 100 µM in each case.
Take `CCOC(=O)Cc1nc2sc(S(N)(=O)=O)nn2c1Br`: the TGI was over 100 µM with COLO 205 colon; 96.2 µM in the test with SK-MEL-28 melanoma; 39.5 µM in the test with NCI-H522 lung; over 100 µM in the test on SNB-19 CNS; 81.5 µM in the test on NCI-H23 lung; 77.5 µM in the test with HCT-15 colon. In addition, the TGI in the test with U251 CNS was 37.9 µM; in the test on A498 renal it was 65.6 µM; in the test with HL-60(TB) leukemia it was over 100 µM; with ACHN renal it was 93.3 µM; in the test on HT29 colon, 45.1 µM; with SN12C renal, 52.5 µM. Also, the TGI in the test on OVCAR-3 ovarian was 98.5 µM; with BT-549 breast, 83.8 µM; in the test on A549 NSCLC it was over 100 µM; in the test on MCF7 breast it was over 100 µM; in the test on EKVX NSCLC it was 79.4 µM; with TK-10 renal, over 100 µM. Also, the figures for the TGI in the test on LOX IMVI melanoma and with T-47D breast were 44.3 µM and 70.8 µM, respectively.
As to `COc1ccc2oc(OC)c(CC=C(C)C)c(=O)c2c1C`, the TGI in the test with COLO 205 colon, with SK-MEL-28 melanoma, in the test on NCI-H522 lung, in the test on SNB-19 CNS, in the test with NCI-H23 lung and in the test on HCT-15 colon was over 100 µM in each case. The TGI in the test on U251 CNS, with A498 renal, in the test with HL-60(TB) leukemia, in the test on ACHN renal, in the test with HT29 colon and with SN12C renal was over 100 µM each time. The TGI in the test on OVCAR-3 ovarian, with BT-549 breast, with A549 NSCLC, in the test with MCF7 breast, in the test with EKVX NSCLC and with TK-10 renal was over 100 µM in each case. Besides, the TGI in the test on LOX IMVI melanoma and with T-47D breast was over 100 µM each time.
For the molecule `Nc1nc(Cl)cc(NCCC2(CO)CCC2)n1`, the TGI in the test with COLO 205 colon, in the test with SK-MEL-28 melanoma, in the test with NCI-H522 lung, in the test with SNB-19 CNS, in the test with NCI-H23 lung and in the test on HCT-15 colon was over 100 µM each time. In addition, the TGI in the test with U251 CNS, in the test with A498 renal, in the test with HL-60(TB) leukemia, in the test with ACHN renal, in the test on HT29 colon and with SN12C renal was over 100 µM each time. Further, the TGI in the test with OVCAR-3 ovarian, in the test on BT-549 breast, with A549 NSCLC, in the test with MCF7 breast, in the test with EKVX NSCLC and in the test on TK-10 renal was over 100 µM each time. The TGI in the test on LOX IMVI melanoma and with T-47D breast was over 100 µM each time.
Regarding `COC(=O)C1CCC(=O)N1C(c1ccc(OC)cc1)c1ccc(OC)cc1` (centres undefined), the TGI with COLO 205 colon, in the test on SK-MEL-28 melanoma, with NCI-H522 lung, with SNB-19 CNS, with NCI-H23 lung and with HCT-15 colon was over 100 µM in each case. The TGI in the test with U251 CNS, in the test on A498 renal, in the test with HL-60(TB) leukemia, in the test on ACHN renal, in the test with HT29 colon and in the test on SN12C renal was over 100 µM each time. Moreover, the TGI in the test on OVCAR-3 ovarian, in the test on BT-549 breast, with A549 NSCLC, in the test on MCF7 breast, in the test with EKVX NSCLC and in the test on TK-10 renal was over 100 µM throughout. For the same molecule, the TGI in the test with LOX IMVI melanoma and with T-47D breast was over 100 µM in each case.
Consider `CC1(CCCO)CCCCCCCCCC(C)(CCCO)C1=O` (centres undefined), for which the TGI in the test with COLO 205 colon, in the test on SK-MEL-28 melanoma, in the test on NCI-H522 lung, in the test with SNB-19 CNS, in the test with NCI-H23 lung and with HCT-15 colon was over 100 µM in each case. Further, the TGI with U251 CNS, in the test with A498 renal, with HL-60(TB) leukemia, in the test on ACHN renal, in the test on HT29 colon and in the test on SN12C renal was over 100 µM in each case. Further, the TGI in the test with OVCAR-3 ovarian, in the test with BT-549 breast, in the test on A549 NSCLC, with MCF7 breast, with EKVX NSCLC and in the test on LOX IMVI melanoma was over 100 µM in each case. In addition, the TGI in the test on T-47D breast is over 100 µM.
Consider `CCCCCCCCCCCCOP(=O)(O)OCC(N)C(=O)O` (centres undefined), for which the TGI in the test with COLO 205 colon is over 100 µM; in the test on SK-MEL-28 melanoma, over 100 µM; in the test with NCI-H522 lung, over 100 µM; with SNB-19 CNS, 44 µM; with NCI-H23 lung it was over 100 µM; in the test on HCT-15 colon it was 36.6 µM. Further, the TGI in the test with U251 CNS was 26.7 µM; with A498 renal, 75.8 µM; in the test on HL-60(TB) leukemia, 36.8 µM; with ACHN renal, over 100 µM; in the test on HT29 colon it was over 100 µM; in the test on SN12C renal, 61 µM. For the same molecule, the TGI is 33.2 µM in the test with OVCAR-3 ovarian; 64 µM with BT-549 breast; over 100 µM in the test on A549 NSCLC; over 100 µM with MCF7 breast; over 100 µM with EKVX NSCLC; 53 µM with TK-10 renal. Moreover, the results for the TGI with LOX IMVI melanoma and with T-47D breast were 64 µM and over 100 µM, respectively.
Take `Cc1ccc(OC2CC(n3cnc4ncnc(Cl)c43)OC2Oc2ccc(C)cc2)cc1` (centres undefined): the TGI was 46.5 µM in the test with COLO 205 colon; over 100 µM in the test on SK-MEL-28 melanoma; over 100 µM with NCI-H522 lung; 42.5 µM in the test on SNB-19 CNS; 82.5 µM in the test with NCI-H23 lung; over 100 µM in the test on HCT-15 colon. Moreover, the TGI in the test on U251 CNS is over 100 µM; with A498 renal it was over 100 µM; with HL-60(TB) leukemia, over 100 µM; in the test with ACHN renal, 10.5 µM; with HT29 colon, over 100 µM; in the test on SN12C renal it was over 100 µM. Also, the TGI in the test with OVCAR-3 ovarian is 33.9 µM; with BT-549 breast, over 100 µM; with A549 NSCLC it was 82.5 µM; with MCF7 breast, 29.9 µM; in the test on EKVX NSCLC, over 100 µM; with TK-10 renal, over 100 µM. The TGI in the test with LOX IMVI melanoma was over 100 µM; with T-47D breast, 28.8 µM.
